Like-named read-outs stand apart in the source and are kept apart here.
Assays:
[1] = test system: MYC protein expression in MCF-7 breast cancer cells; test: Western blotting of MYC protein level in MCF-7 cells; type: cell-based, human; details: Homo sapiens, MCF7; western blotting, MCF-7 cells, 0.5, 1, 2, and 4 μM, 24 hours; read-out: MYC Inhibition
How it was run: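 MCF-7 cells were exposed to compounds at 0.5, 1, 2 and 4 μM for 24 hours at 37° C. MYC was detected by immunoblot with ECL, using rabbit anti-MYC (1:1000) and anti-GAPDH (1:2000) as loading control.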

NCI-60 cancer cell lines = test: NCI-60 cancer cell line drug screen (GI50, MGM); type: cell-based, human; details: Homo sapiens; for GI50: read-out: Antiproliferative Activities [GI50 (μM)]
Description: Cancer cells were incubated with the test compounds at five concentrations ranging from 100 μM to 10 nM for 48 h. […] The approximate average of GI50 values across the entire panel of NCI-60 cancer cell lines for each compound was recorded as the MGM value.

human topoisomerase I = target: T1, human topoisomerase I (Homo sapiens, UniProt P11387); details: relative topoisomerase I inhibition levels, previously determined, six levels (0 - 5, +++++ = 5); cited from earlier work
T1 sequence (P11387 1-765): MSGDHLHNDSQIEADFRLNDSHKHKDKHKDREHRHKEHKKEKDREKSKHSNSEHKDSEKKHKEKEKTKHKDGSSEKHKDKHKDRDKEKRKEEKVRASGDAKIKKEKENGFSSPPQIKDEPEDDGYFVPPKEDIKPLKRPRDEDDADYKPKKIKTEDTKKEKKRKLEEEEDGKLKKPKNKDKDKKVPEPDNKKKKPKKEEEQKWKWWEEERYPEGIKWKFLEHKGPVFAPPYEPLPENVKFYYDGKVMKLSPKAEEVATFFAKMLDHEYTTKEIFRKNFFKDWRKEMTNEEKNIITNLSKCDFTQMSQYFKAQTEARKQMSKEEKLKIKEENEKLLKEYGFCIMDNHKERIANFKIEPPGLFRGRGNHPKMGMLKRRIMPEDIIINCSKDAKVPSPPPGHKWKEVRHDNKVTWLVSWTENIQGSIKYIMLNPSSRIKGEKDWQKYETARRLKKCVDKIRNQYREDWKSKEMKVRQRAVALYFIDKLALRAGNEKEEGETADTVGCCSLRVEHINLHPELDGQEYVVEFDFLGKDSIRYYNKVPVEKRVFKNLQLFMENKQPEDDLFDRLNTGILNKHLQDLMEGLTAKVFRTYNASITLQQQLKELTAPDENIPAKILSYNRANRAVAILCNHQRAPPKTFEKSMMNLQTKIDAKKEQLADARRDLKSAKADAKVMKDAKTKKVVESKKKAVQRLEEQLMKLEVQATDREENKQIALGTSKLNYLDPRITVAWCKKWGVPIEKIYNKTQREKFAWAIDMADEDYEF

Compound CNCCCn1c2c(c3ccc(Cl)cc3c1=O)C(=O)c1cc(OC)cnc1-2 [Compound 3] has a minimal effective concentration [1] of 0.5 to 1 µM, a GI50 (NCI-60 cancer cell lines; 786-0, Renal Cancer, 786-0) of 0.32 µM and a GI50 (NCI-60 cancer cell lines; A498, Renal Cancer, A498) of 0.53 µM. It also gave a GI50 (NCI-60 cancer cell lines; A549, Non-Small Cell Lung Cancer, A549/ATCC) of 0.45 µM, a GI50 (NCI-60 cancer cell lines; ACHN, Renal Cancer, ACHN) of 0.22 µM and a GI50 (NCI-60 cancer cell lines; BT-549, Breast Cancer, BT-549) of 0.65 µM. It also gave a GI50 (NCI-60 cancer cell lines; CAKI-1, Renal Cancer, CAKI-1) of 0.06 µM, a GI50 (NCI-60 cancer cell lines; CCRF-CEM, Leukemia, CCRF-CEM) of 0.06 µM and a GI50 (NCI-60 cancer cell lines; COLO 205, Colon Cancer, COLO 205) of 0.5 µM. For the same compound, the GI50 (NCI-60 cancer cell lines; DU-145, Prostate Cancer, DU-145) was 0.33 µM, the GI50 (NCI-60 cancer cell lines; EKVX, Non-Small Cell Lung Cancer, EKVX) was 1.2 µM and the GI50 (NCI-60 cancer cell lines; HCC 2998, Colon Cancer, HCC-2998) was 1.41 µM. The GI50 (NCI-60 cancer cell lines; HCT-15, Colon Cancer, HCT-15) was 1.11 µM, the GI50 (NCI-60 cancer cell lines; HCT-116, Colon Cancer, HCT-116) was 0.55 µM and the GI50 (NCI-60 cancer cell lines; HL-60, Leukemia, HL-60(TB)) was 0.6 µM. For the same compound, the GI50 (NCI-60 cancer cell lines; HOP-62, Non-Small Cell Lung Cancer, HOP-62) was 0.22 µM, the GI50 (NCI-60 cancer cell lines; HOP-92, Non-Small Cell Lung Cancer, HOP-92) was 1.19 µM and the GI50 (NCI-60 cancer cell lines; HT-29, Colon Cancer, HT29) was 1.08 µM. For the same compound, the GI50 (NCI-60 cancer cell lines; Hs-578T, Breast Cancer, HS 578T) was 1.84 µM, the GI50 (NCI-60 cancer cell lines; IGROV-1, Ovarian Cancer, IGROV1) was 1.14 µM and the GI50 (NCI-60 cancer cell lines; K562, Leukemia, K-562) was 1.14 µM. The GI50 (NCI-60 cancer cell lines; KM12, Colon Cancer, KM12) was 1.1 µM, the GI50 (NCI-60 cancer cell lines; LOX IMVI, Melanoma, LOX IMVI) was 0.16 µM and the GI50 (NCI-60 cancer cell lines; Leukemia, SR) was 0.14 µM. For the same compound, the GI50 (NCI-60 cancer cell lines; MCF7, Breast Cancer, MCF7) was 0.05 µM, the GI50 (NCI-60 cancer cell lines; MDA-MB-231, Breast Cancer, MDA-MB-231/ATCC) was 1.62 µM and the GI50 (NCI-60 cancer cell lines; MDA-MB-435, Melanoma, MDA-MB-435) was 1.07 µM. It also gave a GI50 (NCI-60 cancer cell lines; MDA-MB-468, Breast Cancer, MDA-MB-468) of 1.28 µM, a GI50 (NCI-60 cancer cell lines; MOLT-4, Leukemia, MOLT-4) of 0.04 µM and a GI50 (NCI-60 cancer cell lines; Malme-3M, Melanoma, MALME-3M) of 1.48 µM. It also gave a GI50 (NCI-60 cancer cell lines; Melanoma, M14) of 0.57 µM, a GI50 (NCI-60 cancer cell lines; NCI-H23, Non-Small Cell Lung Cancer, NCI-H23) of 0.92 µM and a GI50 (NCI-60 cancer cell lines; NCI-H226, Non-Small Cell Lung Cancer, NCI-H226) of 1.35 µM. It also gave a GI50 (NCI-60 cancer cell lines; NCI-H322M, Non-Small Cell Lung Cancer, NCI-H322M) of 1.28 µM, a GI50 (NCI-60 cancer cell lines; NCI-H460, Non-Small Cell Lung Cancer, NCI-H460) of 0.05 µM and a GI50 (NCI-60 cancer cell lines; NCI-H522, Non-Small Cell Lung Cancer, NCI-H522) of 0.37 µM. It also gave a GI50 (NCI-60 cancer cell lines; OVCAR-3, Ovarian Cancer, OVCAR-3) of 1.41 µM, a GI50 (NCI-60 cancer cell lines; OVCAR-4, Ovarian Cancer, OVCAR-4) of 1.27 µM and a GI50 (NCI-60 cancer cell lines; OVCAR-5, Ovarian Cancer, OVCAR-5) of 1.69 µM. For the same compound, the GI50 (NCI-60 cancer cell lines; OVCAR-8, Ovarian Cancer, OVCAR-8) was 1.18 µM, the GI50 (NCI-60 cancer cell lines; Ovarian Cancer, NCl/ADR-RES) was 0.54 µM and the GI50 (NCI-60 cancer cell lines; Prostate Cancer, PC-3) was 1.02 µM. The GI50 (NCI-60 cancer cell lines; RPMI-8226, Leukemia, RPMI-8226) was 1.47 µM, the GI50 (NCI-60 cancer cell lines; RXF 393, Renal Cancer, RXF 393) was 1.3 µM and the GI50 (NCI-60 cancer cell lines; Renal Cancer, U0-31) was 1.08 µM. It also gave a GI50 (NCI-60 cancer cell lines; SF-268, CNS Cancer, SF-268) of 0.4 µM, a GI50 (NCI-60 cancer cell lines; SF-295, CNS Cancer, SF-295) of 0.13 µM and a GI50 (NCI-60 cancer cell lines; SF-539, CNS Cancer, SF-539) of 0.73 µM. For the same compound, the GI50 (NCI-60 cancer cell lines; SK-MEL-2, Melanoma, SK-MEL-2) was 13.2 µM, the GI50 (NCI-60 cancer cell lines; SK-MEL-5, Melanoma, SK-MEL-5) was 1.12 µM and the GI50 (NCI-60 cancer cell lines; SK-MEL-28, Melanoma, SK-MEL-28) was 1.62 µM. The GI50 (NCI-60 cancer cell lines; SK-OV-3, Ovarian Cancer, SK-OV-3) was 0.66 µM, the GI50 (NCI-60 cancer cell lines; SN12C, Renal Cancer, SN12C) was 1.18 µM and the GI50 (NCI-60 cancer cell lines; SNB-19, CNS Cancer, SNB-19) was 0.61 µM. The GI50 (NCI-60 cancer cell lines; SNB-75, CNS Cancer, SNB-75) was 0.26 µM, the GI50 (NCI-60 cancer cell lines; SW-620, Colon Cancer, SW-620) was 0.08 µM and the GI50 (NCI-60 cancer cell lines; T47D, Breast Cancer, T-47D) was 1.12 µM. The GI50 (NCI-60 cancer cell lines; U-251, CNS Cancer, U251) was 0.3 µM, the GI50 (NCI-60 cancer cell lines; UACC-62, Melanoma, UACC-62) was 0.57 µM and the GI50 (NCI-60 cancer cell lines; UACC-257, Melanoma, UACC-257) was 2.24 µM. The mean GI50 across NCI-60 panel (MGM) (NCI-60 cancer cell lines; average of GI50 values across the entire panel of NCI-60 cancer cell lines) was 600 nM and the “Top1 Inhibiton” value (human topoisomerase I) was “++ (medium inhibition, ++, MYC expression inhibited at 2.0 μM, or no clear dose-dependent MYC inhibition)”.

Reference: patent US20210382058A1, “PATIENT SELECTION FOR TREATMENT OF MYC POSITIVE CANCERS WITH INDENOISOQUINOLINES” (Purdue Research Foundation, priority 2020, published 2021)
